Source: publication PMC12226424, “Enhanced discovery of bacterial laccase‐like multicopper oxidase through computer simulation and metagenomic analysis of industrial wastewater” (FEBS Open Bio, 2025)

What was measured:
Lac3 = conditions: 100 mM acetate, 2.5 mM copper sulfate, O2; listed optimum pH 4.6, 60 °C
Lac5 = conditions: 100 mM acetate, 2.5 mM copper sulfate, O2; listed optimum pH 4.0, 50 °C
Lac4 = conditions: 100 mM acetate, 2.5 mM copper sulfate, O2; listed optimum pH 4.0, 55 °C
Lac9 = conditions: 100 mM acetate, 2.5 mM copper sulfate, O2; listed optimum pH 4.8, 55 °C
Lac1 = conditions: 100 mM acetate, 2.5 mM copper sulfate, O2; listed optimum pH 5.0, 55 °C
Lac5-6 = tested on: T1, Lac5-6; conditions: 100 mM acetate, 2.5 mM copper sulfate, O2; listed optimum pH 4.0, 55 °C
T1 construct: gene Lac5 (GenBank PP987286)

CCn1c(=NN=c2sc3cc(S(=O)(=O)O)ccc3n2CC)sc2cc(S(=O)(=O)O)ccc21 [ABTS, 2,2′‐azinobis(3‑ethylbenzo‐6‑thiazolinesulfonic acid)]
Km (Lac3): 99 µM
Km (Lac5): 63 µM
Km (Lac4): 426 µM
Km (Lac9): 101 µM
Km (Lac1): 112 µM
Km (Lac5-6): 55 µM
